Five compounds from patent US4766108A, “Tyr-Arg-vasopressin antagonists” (Smith Kline Beckman Corporation, priority 1986, dated 1988) can be followed below.

For experiment [1], the target named is T1, vasopressin receptors (V2 -receptors) in the porcine renal medullary membrane (Sus scrofa, UniProt P32307).
T1 construct: the porcine renal medullary membrane; It is derived from the equation for; from tissue; host or cells: porcine (hog) kidney medullary membranes
Kind of experiment: [3H]-LVP binding, porcine renal medullary membrane (Kbind). To be noted: affinity of ligand for receptor in porcine renal medullary membrane; from IC50 of [3H]-LVP binding, Kb = IC50/(1 + L/KD). The method, then:
(§1) V2 -antagonistic activity toward the natural anti-diuretic hormone (anti-ADH activity) is determined, in vitro, in the medullary tissue of hog or human kidneys and, in vivo, in the hydropenic rat. The in vitro assay procedures for vasopressin stimulated adenylate cyclase activation or vasopressin binding activity are described by F. Stassen et al., J. Pharmacology and Experimental Therapeutics, 223, 50-54 (1982). V1 -antagonistic activity is determined by procedures using the rat thoracic aortic tissue and plasma membranes of rat liver. These procedures are described in the noted Stassen publication and in a publication at the lst International Conference on Diuretics, Miami, Fla., March (1984). Oxytocin antagonism is determined as described by W. Sawyer et al., Endocrinology, 106 81 (1979). | ^a Kbind is a measure of the affinity of ligand for receptor in | the porcine renal medullary membrane. It is derived from the equation for | competitive inhibition Kb = IC50 /(1 + L/KD) where | IC50 is the concentration of the ligand for 50% inhibition of [^ | H]-LVP binding, L is the concentration of the ligand, and KD is the | dissociation constant of [ ^3 H]-LVP.

Experiment [2] has as its target T2, V1 receptor, human liver membrane (Homo sapiens, UniProt P37288).
T2 construct: from tissue; host or cells: human liver membranes
The experiment in a line: Binding to human liver membrane (V1 receptor). To be noted: read-out: Kbind human liver (V1 receptor). How it is done: as §1, with “(1979).” for “(1979). | ^a Kbind is a measure of the affinity of ligand for receptor in | the porcine renal medullary membrane. It is derived from the equation for | competitive inhibition Kb = IC50 /(1 + L/KD) where | IC50 is the concentration of the ligand for 50% inhibition of [^ | H]-LVP binding, L is the concentration of the ligand, and KD is the | dissociation constant of [ ^3 H]-LVP.”
^d Kbind relates to human liver membrane activity.

Numbered stars: 1 amine (or outer) side, 2 acyl side, 3 side chain; on linkers, the order of the positions; unused ones are H or OH. Bridge positions count the residues as written; N and C are the ends. Square brackets hold non-standard residues; d marks the D form. Peptide text beside a SMILES is read from it. X1 = O=C(CC1(S[*:2])CCCCC1)[*:1]

T1 sequence (P32307 whole entry): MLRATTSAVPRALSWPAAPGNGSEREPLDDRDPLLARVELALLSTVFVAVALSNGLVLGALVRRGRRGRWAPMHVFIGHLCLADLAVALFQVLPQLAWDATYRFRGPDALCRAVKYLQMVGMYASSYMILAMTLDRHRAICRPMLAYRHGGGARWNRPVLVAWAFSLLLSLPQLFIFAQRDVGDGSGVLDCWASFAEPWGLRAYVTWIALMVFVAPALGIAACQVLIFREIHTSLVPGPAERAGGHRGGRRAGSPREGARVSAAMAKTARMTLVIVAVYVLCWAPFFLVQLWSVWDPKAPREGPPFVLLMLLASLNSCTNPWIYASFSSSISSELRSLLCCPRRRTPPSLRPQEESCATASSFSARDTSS
T2 sequence (P37288 whole entry): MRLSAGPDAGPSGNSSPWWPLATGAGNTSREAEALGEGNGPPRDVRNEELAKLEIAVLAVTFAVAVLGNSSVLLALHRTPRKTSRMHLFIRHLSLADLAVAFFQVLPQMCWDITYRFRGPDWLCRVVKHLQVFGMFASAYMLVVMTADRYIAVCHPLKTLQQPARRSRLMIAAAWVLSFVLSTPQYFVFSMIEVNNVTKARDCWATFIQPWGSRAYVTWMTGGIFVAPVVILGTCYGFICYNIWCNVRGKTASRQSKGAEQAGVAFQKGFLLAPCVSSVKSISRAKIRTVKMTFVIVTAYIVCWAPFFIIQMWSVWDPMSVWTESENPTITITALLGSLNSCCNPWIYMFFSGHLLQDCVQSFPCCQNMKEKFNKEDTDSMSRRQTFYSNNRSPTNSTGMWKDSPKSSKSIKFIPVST

Turning to `CCOc1ccc(C[C@H]2NC(=O)CC3(CCCCC3)SSC[C@@H](C(=O)N[C@@H](Cc3ccc(O)cc3)C(=O)N[C@@H](CCCNC(=N)N)C(N)=O)NC(=O)[C@H](CC(N)=O)NC(=O)[C@H](C(C)C)NC(=O)[C@H](Cc3ccccc3)NC2=O)cc1` [No. 1, [1-(β-mercapto-β,β-cyclopentamethylene-propionic acid)-2-(O-ethyl)-D-tyrosine-4-valine-7-tyrosine-8-arginine-desglycine]-vasopressin] ([dY](Et)FVNCYR-NH2; linker N-5 via X1), in experiment [1], the Ki came to 14 nM. `CCOc1ccc(C[C@H]2NC(=O)CC3(CCCCC3)SSC[C@@H](C(=O)N[C@@H](CCCNC(=N)N)C(=O)N[C@@H](Cc3ccc(O)cc3)C(N)=O)NC(=O)[C@H](CC(N)=O)NC(=O)[C@H](C(C)C)NC(=O)[C@H](Cc3ccccc3)NC2=O)cc1` [No. 2, [1-(β-mercapto-β,β-cyclopentamethylene-propionic acid)-2-(O-ethyl)-D-tyrosine-4-valine-7-arginine-8-tyrosine-9-desglycine]-vasopressin] ([dY](Et)FVNCRY-NH2; linker N-5 via X1): the Ki stood at 23 nM in experiment [1] and 1.8 nM in experiment [2]. For the compound `CCOc1ccc(C[C@H]2NC(=O)CC3(CCCCC3)SSC[C@@H](C(=O)N[C@@H](CCCNC(=N)N)C(=O)N[C@@H](CCCNC(=N)N)C(N)=O)NC(=O)[C@H](CC(N)=O)NC(=O)[C@H](C(C)C)NC(=O)[C@H](Cc3ccccc3)NC2=O)cc1` [compound 3] ([dY](Et)FVNCRR-NH2; linker N-5 via X1), the Ki in experiment [1] amounted to 2.7 nM. On the same count and under the same terms, to `CCOc1ccc(C[C@H]2NC(=O)CC3(CCCCC3)SSC[C@@H](C(=O)N[C@@H](CCCCN)C(=O)N[C@@H](CCCNC(=N)N)C(N)=O)NC(=O)[C@H](CC(N)=O)NC(=O)[C@H](C(C)C)NC(=O)[C@H](Cc3ccccc3)NC2=O)cc1` [compound 4] ([dY](Et)FVNCKR-NH2; linker N-5 via X1) belongs 8.8 nM.

On to `CCOc1ccc(C[C@H]2NC(=O)CC3(CCCCC3)SSC[C@@H](C(=O)N[C@@H](CCCNC(=N)N)C(N)=O)NC(=O)[C@H](CC(N)=O)NC(=O)[C@H](C(C)C)NC(=O)[C@H](Cc3ccccc3)NC2=O)cc1` [compound 5] ([dY](Et)FVNCR-NH2; linker N-5 via X1), for which the Ki in experiment [1] turned out to be 11 nM; in experiment [2], 1.2 nM.
